The values that follow come from patent US11760889B2, “Unsaturated fatty alcohol derivatives from natural oil metathesis” (priority 2012, dated 2023).

Series [1] is described as follows: Surfactant phase behavior study (cross-polarized microscopy). As to conditions: room temperature (20-22° C.). It is filed as physicochemical. As to the method:
Phase behavior is observed using an Olympus BH-2 cross-polarized microscope at 100-400× and room temperature (20° C. to 22° C.). The inventive monounsaturated sulfates and ethoxylate sulfates are compared with their saturated analogs, and in some cases, commercial surfactants.
Samples are prepared by diluting the most concentrated product gradually with deionized water. When the surfactant concentration approaches a phase transition, the concentration is varied at 2-4% intervals to estimate the phase boundary. The actives level reported in Table 15 for each phase boundary is within ±5% of the true boundary.
Samples are loaded between a microscope slide and cover glass and are allowed to equilibrate before observation. Microscopic texture is analyzed and used to determine the phase. For some samples, an AR 2000 rheometer (TA Instruments) is used to measure viscosity at 25° C. to further verify phase behavior.

Series [2] is described as follows: Anionic emulsifier: emulsion stability testing of EW concentrate (modified ASTM E1116-98).
Description: Turbidity changes are noted and recorded.
A Mohr pipette is used to feed EW concentrate to each cylinder. Cylinders are stoppered and inverted ten times, then allowed to stand for 0.5, 1, and 24 h while recording stability at each time as type and % separation.
Spontaneity is recorded according to the following criteria: (1) poor: very thin emulsion cloud with major separation of oil droplets; (2) fair: thin emulsion cloud with minor separation of oil droplets; (3) good: thin emulsion cloud reaches the bottom of the cylinder without separation of any type; (4) excellent: thick emulsion cloud reaches the bottom of the cylinder without separation of any type.
Series [3] can be described thus: Water-soluble herbicide formulation testing (standard dilution test, emulsion stability).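 Further: diluted in a 50 mL Nessler cylinder held at 30 °C.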 It is filed as physicochemical. To be noted: 342 ppm water. As to the method: Surfactant candidates for water soluble herbicide applications are examined as a replacement for the anionic, nonionic, or anionic/nonionic blend portion and compared to a known industry adjuvant standard for use in paraquat, a water soluble herbicide concentrate formulation. A standard dilution test is conducted whereby the concentrates are diluted in water to determine if solubility is complete.
The cylinder is stoppered and inverted ten times. Solubility is recorded as complete or incomplete. Cylinders are allowed to stand and the amount (in mL) and type of separation are recorded after 30 min., 1 h, 2 h, and 24 h. Results of the solubility testing appear in Table 3 below.
An eight to ten mole alkyl phenol ethoxylate surfactant (0.7 g) is added and vigorously mixed for 30 s. Test sample (0.7 g) is added and mixing resumes for 30 s.
Test sample (0.7 g) is added and vigorously mixed for 30 s. Sodium linear alkylbenzene sulfonate (“NaLAS,” 0.7 g) is added and mixing resumes for 30 s.

[4] abbreviates: Adjuvant (anionic/nonionic) test sample.

For the compound `CCCCCCCCCCCCOCCOCCOCCOS(=O)(=O)[O-].[Na+]` [sat. analog of A12-9, reference compound], in series [1], the “Estimated Phase Region: Hexagonal” value was 24-60 % actives, the “Estimated Phase Region: Isotropic Clear” value is 0-24 % actives, the “Estimated Phase Region: Lamellar” value is on record as 60-78 % actives and the “Estimated Phase Region: Solid/gum/paste” value is 78-100 % actives.
Take `CCCCCCCCCCCCOS(=O)(=O)[O-].[Na+]` [sat. analog of A12-3, reference compound]: in series [1], the “Estimated Phase Region: Isotropic Clear” value is reported as 0-31 % actives and the “Estimated Phase Region: Solid/gum/paste” value is 31-100 % actives.
Consider `CCCCCCCCCCCCOS(=O)(=O)O.N` [sat. analog of A12-2, reference compound], for which, in series [1], the “Estimated Phase Region: Hexagonal” value was 31-63 % actives, the “Estimated Phase Region: Isotropic Clear” value is 0-31 % actives, the “Estimated Phase Region: Lamellar” value is 63-74 % actives and the “Estimated Phase Region: Solid/gum/paste” value was 74-100 % actives.
Take C12 Alcohol Ammonium Sulfate [A12-2]: in series [2] (34 ppm water), the “% Separation, 1 h” value came to 4% and the “% Separation, 24 h” value is on record as 4.2%. Further, in series [2] (1000 ppm water), the “% Separation, 1 h” value was determined as 2.5% and the “% Separation, 24 h” value is 3.2%. For the same compound, in series [1], the “Estimated Phase Region: Hexagonal” value was 33-70 % actives, the “Estimated Phase Region: Isotropic Clear” value is listed as 0-33 % actives, the “Estimated Phase Region: Lamellar” value is 70-83 % actives and the “Estimated Phase Region: Solid/gum/paste” value was 83-100 % actives.
For the compound `CCCCCCCCCCOS(=O)(=O)[O-].[Na+]` [sat. analog of A10-3, reference compound], in series [1], the “Estimated Phase Region: Hexagonal” value is on record as 41-59 % actives, the “Estimated Phase Region: Isotropic Clear” value is given as 0-41 % actives and the “Estimated Phase Region: Solid/gum/paste” value is reported as 59-100 % actives.
Turning to `CCCCCCCCCCOS(=O)(=O)O.N` [sat. analog of A10-2, reference compound], in series [1], the “Estimated Phase Region: Hexagonal” value is 42-64 % actives, the “Estimated Phase Region: Lamellar” value is recorded as 64-80 % actives, the “Estimated Phase Region: Solid/gum/paste” value was 80-100 % actives and the “Estimated Phase Region: Unknown” value was 0-42 % actives.
Take “1 Mole Ethoxylated C12 Alcohol, Sodium Sulfate [A12-6]”: the figures for the “% Separation, 1 h” value in series [2] (34 ppm water) and in series [2] (1000 ppm water) were 4.3% and 2.7%, respectively. Further, the “% Separation, 24 h” value in series [2] (34 ppm water) was determined as 5.2%; in series [2] (1000 ppm water), 3.7%. Further, the “Emulsion stability, mL separation, 1 h” value in series [3] (setting [4]), in series [3] (Anionic test sample) and in series [3] (Nonionic test sample) was 0 mL in each case. For the same compound, the “Emulsion stability, mL separation, 24 h” value in series [3] (setting [4]), in series [3] (Anionic test sample) and in series [3] (Nonionic test sample) was 0 mL each time.
On to “5 Mole Ethoxylated C12 Alcohol, Sodium Sulfate [A12-12]”, for which the “% Separation, 1 h” value is listed as 4.1% in series [2] (34 ppm water) and 3% in series [2] (1000 ppm water). In addition, the figures for the “% Separation, 24 h” value in series [2] (34 ppm water) and in series [2] (1000 ppm water) were 4.5% and 3.8%, respectively. Besides, the “Emulsion stability, mL separation, 1 h” value in series [3] (setting [4]), in series [3] (Anionic test sample) and in series [3] (Nonionic test sample) was 0 mL in each case. Also, the “Emulsion stability, mL separation, 24 h” value in series [3] (setting [4]), in series [3] (Anionic test sample) and in series [3] (Nonionic test sample) was 0 mL throughout.
